Results on 4 compounds are retold here after patent publication US20080167271A1, “PHARMACEUTICAL COMPOSITIONS COMPRISING A BISPHOSPHONATE COMPOUND” (Besins Healthcare SA, priority 2006, published 2008).

Data set [1] is described as follows: Bisphosphonate concentration at about 90% saturation in vehicles. In kind it is physicochemical.
The subject of data set [2] is human abdominal dermatomed skin. The experiment in a line: In vitro dermal absorption, Franz cell assay. In kind it is in vitro ADME.
Data set [3] concerns ovariectomized rats. From the text: Ovariectomized rats are a recognised model for bone loss study, as the surgical operation causes an estrogen deficiency which results in rapid bone loss. See Guideline on the evaluation of medicinal products in the treatment of primary osteoporosis, CPMP/EWP/552/95 available for download from the European Medicine Agency at: http://www.emea.europa.eu/.
13-week old rats (Sprague-Dawley, virgin female), 8 per group, were sham operated (group 1-control) or ovariectomized (OVX) (groups 2 to 7) on the day before the first day of treatment. […] The ratio of D-Pyr to Creat is a recognised marker of bone resorption. See, e.g., Christenson RH “Biochemical markers of bone metabolism: an overview” Clin Biochem 1997, 30(8), 573-593.
Femur and L2-L5 lumbar vertebrae block Bone Mineral Density (BMD) were calculated from in vivo Dual-energy X-ray Absorptiometry (DXA) measurement at the same time points with an Hologic apparatus. BMD was also measured ex vivo on dissected femur and L4 vertebrae at the end of the treatment period.

For data set [4] the following is noted: humans; cited from earlier work.
The conditions of data set [5]: rat, published data (Lin et al., J Pharm Sci); cited from earlier work.
Data set [6] is described as follows: Solubility of menthol in hydroalcoholic mixtures with bisphosphonate at 90% saturation (GC-FID). Particulars: QS 100 g phosphate buffer pH 6.
Where [7] appears, read: buffered hydroalcoholic solution 90/10 buffer/ethanol.
Setting [8] is: group 3: OVX rats, 2 μg/kg sc inj daily.
Setting [9] is: group 4: OVX rats, topical 4.46 mg/kg daily (15.6 mg/kg/d for first 2 weeks).
[10] abbreviates: group 5: OVX rats, topical 15.6 mg/kg weekly.
The mark [11] stands for this setting: group 7: OVX rats, topical 10.85 mg/kg twice weekly (15.6 mg/kg twice a week for first 2 weeks).

Where two headings read alike, the source gives them in different places.

As for `O=P(O)(O)C(O)(Cc1cccnc1)P(=O)(O)O` [risedronate, 1-hydroxy-2-(3-pyridyl)ethylidene-1,1-bisphosphonic acid], the results for the “concentration of anhydrous monosodium salt at 90% saturation” value (shortened to “concentration … at 90% saturation”) in data set [1] (setting [7]) and in data set [1] (pure water) were 22.4 mg/g and 45.3 mg/g, respectively. In data set [2] (FIGS. 12-13), the “effect of glycerine on amount recovered in the receptor fluid and the dermis” value was “does not significantly increase”. In addition, the “percutaneous absorption: recovery in the receptor fluid and the dermis” value in data set [2] (Franz cell, human skin, 24 hrs) is “does cross the skin”. The “effect of urea on amount recovered in the receptor fluid and dermis/skin” value in data set [2] (buffered solution vs 100% phosphate buffer, FIGS. 10-11) is reported as “increases”. In data set [2] (menthol at 90% of saturating concentration in 90/10 phosphate buffer/ethanol vs phosphate buffer solution, FIGS. 6-7), the “effect of menthol on amount recovered in the receptor fluid and dermis” value is recorded as “does not increase”. Further, the “amount recovered in the receptor fluid and the dermis with oleic acid” value in data set [2] (oleic acid at 90% of maximum solubility in 90/10 phosphate buffer/ethanol with Tween 80 4.5%, vs 100% phosphate buffer solution) was “lower”. Moreover, in data set [2] (urea in phosphate buffer solution, FIGS. 8-9), the “effect of urea on amount recovered in the receptor fluid and dermis” value was “neutral effect”. The “effect of propylene glycol (PG) on amount recovered” value in data set [2] (vs 100% phosphate buffer solution, FIGS. 10-11) is given as “does not significantly affect”. For the same compound, the “effect of the increase in alcohol content on absorption (percentage of the dose applied)” value in data set [2] (water/alcohol solutions, FIGS. 1-2) was “slightly increased”.

Regarding `NCCCC(O)(P(=O)(O)O)P(=O)(O)O` [alendronate, 4-amino-1-hydroxybutylidene-1,1-bisphosphonic acid], in data set [1] (setting [7]), the “concentration … at 90% saturation” value came out at 10.4 mg/g. For the same compound, in data set [1] (pure water), the “concentration … at 90% saturation” value was 28.09 mg/g. The “BMD results compared with subcutaneous injection (group 3) or control (group 1)” value in data set [3] (OVX rats treated with topical alendronate, groups 4-7) is listed as “similar”. In data set [3] (setting [8]), the “Ex vivo BMD L4 vertebrae Week 8” value was found to be 0.251 ± 0.012 g/cm^2, the “In vivo BMD Vertebrae Evolution (Week 8 − Baseline)” value (“In vivo BMD Vertebrae Evolution” for short) was 0.035 ± 0.01 g/cm^2, the “In vivo BMD metaphysis Week 8” value is listed as 0.243 ± 0.029 g/cm^2 and the “In vivo BMD total femur Evolution (Week 8 − Baseline)” value (shortened to “In vivo BMD total femur Evolution”) amounted to 0.035 ± 0.015 g/cm^2. For the same compound, the “In vivo BMD total femur Week 8” value in data set [3] (setting [8]) is given as 0.291 ± 0.013 g/cm^2. Besides, in data set [3] (setting [9]), the “Ex vivo BMD L4 vertebrae Week 8” value stood at 0.26 ± 0.01 g/cm^2, the “In vivo BMD Vertebrae Evolution” value was 0.035 ± 0.012 g/cm^2, the “In vivo BMD metaphysis Week 8” value is recorded as 0.270 ± 0.032 g/cm^2 and the “In vivo BMD total femur Evolution” value stood at 0.04 ± 0.008 g/cm^2. In data set [3] (setting [9]), the “In vivo BMD total femur Week 8” value is reported as 0.302 ± 0.015 g/cm^2. Also, in data set [3] (setting [10]), the “Ex vivo BMD L4 vertebrae Week 8” value came to 0.255 ± 0.017 g/cm^2, the “In vivo BMD Vertebrae Evolution” value is 0.023 ± 0.012 g/cm^2, the “In vivo BMD metaphysis Week 8” value is 0.252 ± 0.009 g/cm^2 and the “In vivo BMD total femur Evolution” value stood at 0.023 ± 0.016 g/cm^2. In addition, the “In vivo BMD total femur Week 8” value in data set [3] (setting [10]) stood at 0.293 ± 0.011 g/cm^2. In addition, in data set [3] (setting [11]), the “Ex vivo BMD L4 vertebrae Week 8” value was found to be 0.261 ± 0.015 g/cm^2, the “In vivo BMD Vertebrae Evolution” value came to 0.028 ± 0.008 g/cm^2, the “In vivo BMD metaphysis Week 8” value amounted to 0.264 ± 0.027 g/cm^2 and the “In vivo BMD total femur Evolution” value amounted to 0.032 ± 0.025 g/cm^2. In data set [3] (setting [11]), the “In vivo BMD total femur Week 8” value came out at 0.304 ± 0.024 g/cm^2. For the same compound, the dermal tolerance problems entry in data set [3] (groups 4 and 7, topical 15.6 mg/kg/d and 15.6 mg/kg twice a week, doses reduced after 2 weeks) is “formation of dry scabs”. In data set [3] (topically treated groups 4 and 7), the “BMD in the distal metaphysis (part of femur) compared with subcutaneous injection group (group 3)” value is reported as “statistically higher”. For the same compound, the “systemic dose recovered in the urine” value in data set [4] was “approximately 50%”. Besides, the “bone recovery after oral administration” value in data set [5] is on record as 0.9%.

For the compound `O=P([O-])(O)C(O)(Cc1cccnc1)P(=O)(O)O.[Na+]` [Sodium Risedronate], the “anhydrous concentration (w/w) at about 90% saturation” value in data set [1] (Water/ethanol ratio (v/v) 50/50) amounted to 0.02%; in data set [1] (Water/ethanol ratio (v/v) 60/40), 0.17%; in data set [1] (Water/ethanol ratio (v/v) 70/30) it was 0.22%; in data set [1] (Water/ethanol ratio (v/v) 80/20) it was 0.77%; in data set [1] (Water/ethanol ratio (v/v) 90/10) it was 1.66%.

As for `CC1CCC(C(C)C)C(O)C1` (stereo not shown) [menthol], in data set [6] (10 g ethanol absolute), the “Solubility of menthol in the presence of sodium alendronate” value was determined as 70 mg/100 g and the “Solubility of menthol in the presence of sodium risedronate” value is given as 80 mg/100 g. Besides, in data set [6] (20 g ethanol absolute), the “Solubility of menthol in the presence of sodium alendronate” value was determined as 120 mg/100 g and the “Solubility of menthol in the presence of sodium risedronate” value was determined as 140 mg/100 g.
